What all share (format): cell-based
For one assay, the system named is S. aureus. The assay is described as follows: Disc diffusion assay (DDA) of PKZ6 and PKZ18 analogs with S. aureus. To be noted: Table 4, 150 μg/ml, ✓ = zone of inhibition observed. The source says:
(§1) The identity and purity of both PKZ 6 and 18 was confirmed by mass spectroscopy. Forty commercially available compounds chosen on the basis of initial in silico selections and similarity to our two hits were screened by disc diffusion assay (DDA) to determine their relative antibacterial activity with S. aureus. […] These 14 compounds were further evaluated by minimum inhibitory concentration assays (MIC)^41,42, and minimum bactericidal assays (MBC)^41 to confirm antibacterial activity, determine the concentration at which S. aureus growth is inhibited in liquid culture (MIC) and if they are acting as bacteriostatic or bactericidal agents (MBC). […] Representative embodiments are shown below.
All compounds were tested at a concentration of 150 μg/ml.

Assay [1] deals with E. coli ATCC 25922. The assay is described as follows: MBC determination. To be noted: Table 5 analogs; triplicate experiments; N/O = not observed at concentrations tested (512-0.25 μg/mL). How it is done:
(§2) Following 24 h incubation of these subcultures at 37° C., MBC values were recorded as the lowest compound concentration at which no viable colonies were observed.

Assay [2] deals with E. coli ATCC 25922. The assay is described as follows: Broth microdilution MIC (Gram negative specificity control). To be noted: Table 5 analogs, triplicate experiments, N/O = not observed at concentrations tested (512-0.25 μg/mL); for MIC: Escherichia coli, ATCC25922, read-out: E. coli MIC.
The subject of assay [3] is S. aureus ATCC 29213. The assay is described as follows: Broth microdilution MIC. Particulars: Table 5 analogs, triplicate experiments, N/O = not observed at concentrations tested (512-0.25 μg/mL); for MIC: Staphylococcus aureus, ATCC29213, read-out: S. aureus MIC.
Excerpt: as §1
Broth microdilution assays^77, 78 were performed with B. subtilis, and S. aureus to determine the lowest compound concentration inhibiting visible growth, i.e., minimum inhibitory concentration (MIC) of the 4 original compounds. […] The insolubility of the fourth compound may account for its lack of antibacterial activity. […] The MICs of each compound are moderate.
Strains were grown on trypticase soy agar (TSA) with 5% sheep blood at 37° C. for 24 hours. Five isolated colonies were used to inoculate 5 mL cation-adjusted Mueller-Hinton broth (CAMHB) contained in a 50 mL centrifuge tube. The resulting culture was incubated shaking at 200 rpm for 3 hours at 37° C. and then diluted in CAMHB until its turbidity matched that of a 0.5 McFarland standard (OD625 0.08-0.10). After the culture had been standardized against a 0.5 McFarland standard, it was diluted 1:10 in CAMHB and then 5 μL of this dilution was added to the appropriate wells of a 96-well, flat-bottomed tissue culture plate in which each row contained a twofold dilution series of a particular compound ranging in concentration from 0.25 μg/mL to 512 μg/mL. Each plate also included a sterility control well containing CAMHB to which standardized inoculum was not added and a growth control well containing CAMHB to which 5 μL standardized inoculum was added. […] With the exception of the sterility control well, all wells were inoculated within 15 minutes of inoculum preparation to ensure that the starting concentration of bacteria in each well was approximately 5×10^5 CFU/m L. A Tecan Sunrise microplate absorbance reader was used to measure the OD620 of each well before and after 20 h incubation at 37° C. MIC values were recorded as the lowest compound concentration at which no visible growth was observed after this incubation period.

Assay [4] relates to S. aureus ATCC 29213. The assay is described as follows: MBC determination. Particulars: Table 5 analogs, triplicate experiments, N/O = not observed at concentrations tested (512-0.25 μg/mL).
Excerpt: as §1, §2

The structures appear in SMILES notation. Values after ≈ are worked out from the molar mass of the structure shown.

In the case of `CC(C)CCNC(=O)c1c(O)n2c3c(cccc3c1=O)CCC2` [Compound 0603], the ZOI observed result in the assay with S. aureus is “✓”. The “E. coli (MBC)” value in the assay on E. coli ATCC 25922 [1] is recorded as “N/O”. For the same compound, the MIC with E. coli ATCC 25922 [2] and in the assay on S. aureus ATCC 29213 [3] was 512 µg/mL (≈ 1630 µM) in each case. In addition, in the assay on S. aureus ATCC 29213 [4], the “S. aureus (MBC)” value was “N/O”.

Turning to `CC1CC(NC(=O)C2C3CCC(C3)C2C(=O)O)CC(C)(C)C1` (stereo not shown) [Compound 0605], in the assay with S. aureus, the ZOI observed entry is “✓”.

With `O=C(NCCN1CCNCC1)c1c(O)c2ccccc2[nH]c1=O` [Compound 0607], the ZOI observed entry in the assay with S. aureus is listed as “✓”. In the assay on E. coli ATCC 25922 [1], the “E. coli (MBC)” value is “N/O”. For the same compound, the MIC was 256 µg/mL (≈ 809 µM) in the assay with E. coli ATCC 25922 [2] and 512 µg/mL (≈ 1620 µM) in the assay with S. aureus ATCC 29213 [3]. The “S. aureus (MBC)” value in the assay on S. aureus ATCC 29213 [4] is “N/O”.

In the case of `O=C(NCCNCCO)c1c(O)c2cccc3c2n(c1=O)CCC3` [Compound 0609], in the assay with S. aureus, the ZOI observed result was “✓”.

For the compound `CCCn1c(=O)c(C(=O)NCCN2CCNCC2)c(O)c2ccccc21` [Compound 0610], the ZOI observed result in the assay on S. aureus was “✓”.

In the case of `O=c1cc(O)c2c(=O)n3c4c(cccc4c2o1)CCC3` [Compound 0611], in the assay with S. aureus, the ZOI observed entry was “✓”.

In the case of `O=C(NCCN1CCNCC1)C1=C(O)C2=CC=CC3CCN(C1=O)C23` (stereo not shown) [Compound 0613], the ZOI observed entry in the assay on S. aureus is reported as “✓”.

As for `NCCNC(=O)c1c(O)c2cccc3c2n(c1=O)CCC3` [Compound 0615], in the assay with S. aureus, the ZOI observed entry is “✓”.

For the compound `CCCCc1ccc(-c2nc(NC(=O)C3CC=CCC3C(=O)O)sc2C)cc1` (stereo not shown) [Compound 1805], in the assay with S. aureus, the ZOI observed result is given as “✓”.

Turning to `CCCc1ccc(-c2nc(NC(=O)C3CC(C)=C(C)CC3C(=O)O)sc2C)cc1` (stereo not shown) [Compound 1808], the ZOI observed entry with S. aureus is “✓”.

As for `CC1=C(C)CC(C(=O)Nc2nc(-c3ccc(C)cc3)c(C)s2)C(C(=O)O)C1` (stereo not shown) [Compound 1810], in the assay with S. aureus, the ZOI observed result was “✓”. The “E. coli (MBC)” value in the assay with E. coli ATCC 25922 [1] was “N/O”. In addition, the MIC in the assay on E. coli ATCC 25922 [2] was 512 µg/mL (≈ 1330 µM); in the assay with S. aureus ATCC 29213 [3] it was 256 µg/mL (≈ 666 µM). In addition, the “S. aureus (MBC)” value with S. aureus ATCC 29213 [4] was “N/O”.

In the case of `O=C(O)C1C2CCC(C2)C1C(=O)Nc1nc(-c2cccs2)cs1` (stereo not shown) [Compound 1813], in the assay on S. aureus, the ZOI observed entry is listed as “✓”. Moreover, in the assay with E. coli ATCC 25922 [1], the “E. coli (MBC)” value is “N/O (N/O)”. The “E. coli MIC” value in the assay on E. coli ATCC 25922 [2] was “N/O (N/O)”. For the same compound, in the assay with S. aureus ATCC 29213 [3], the “S. aureus MIC” value was “N/O (N/O)”. In addition, the “S. aureus (MBC)” value with S. aureus ATCC 29213 [4] is reported as “N/O (N/O)”.

As for `O=C(O)C1C2CCC(C2)C1C(=O)Nc1nc(-c2ccc(F)cc2F)cs1` (stereo not shown) [Compound 1819], the ZOI observed entry with S. aureus is “✓”. In the assay with S. aureus ATCC 29213 [3], the MIC came to 128 µg/mL (≈ 338 µM). The MBC in the assay on S. aureus ATCC 29213 [4] (Staphylococcus aureus, ATCC29213, read-out: S. aureus (MBC)) came out at 512 µg/mL (≈ 1350 µM).

On to `C[C@@H]1CC[C@@H](C)[C@H](C(=O)Nc2nc(-c3ccc(Cl)cc3Cl)cs2)C1C(=O)O` (stereo partly shown) [Compound 1820], for which, in the assay on S. aureus, the ZOI observed entry is “✓”. In addition, the MIC with S. aureus ATCC 29213 [3] was 64 µg/mL (≈ 150 µM). Moreover, the “S. aureus (MBC)” value in the assay with S. aureus ATCC 29213 [4] is “N/O”.

These data come from patent publication US10266527B2, “T-box riboswitch-binding anti-bacterial compounds” (THE RESEARCH FOUNDATION FOR THE STATE UNIVERSITY OF NEW YORK, priority 2013, dated 2019).
